Assays:
B. subtilis 168 [1] = assay: Bliss interaction score (quartile over a dose matrix) (fitness difference); higher = more antagonism (negative = synergy)
Summary of the method: (§1)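 OD595 was read at entry into stationary phase and expressed relative to the robust mean of the no-drug wells on the same plate, capped at 1. The resulting ratio is the fitness value. The Bliss score, observed fitness minus product-based expected fitness with single-drug fitness inferred from combinations, is summarised by quartiles over technical, biological and donor/recipient replicates.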

S. aureus Newman [2] = assay: as above
Summary of the method: as §1

S. aureus DSM 20231 [3] = assay: as above
Summary of the method: as §1

S. pneumoniae D39V [4] = assay: as above
Summary of the method: as §1

B. subtilis 168 [5] = assay: fitness (endpoint OD595 vs no drug) (fraction); higher = more growth
Summary of the method: (§2)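 At 37 °C, bacteria in TSB, LB Lennox or CY were grown in 384-well plates from a starting OD595 of 0.01. OD595 was measured every 30 min for 14 h, with the first reading used as background. Fitness is the optical density at the switch to stationary phase as a fraction of the robust mean of no-drug control wells, capped at 1.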

S. aureus Newman [6] = assay: as above
Summary of the method: as §2

S. aureus DSM 20231 [7] = assay: as above
Summary of the method: as §2

S. pneumoniae D39V [8] = assay: as above
Summary of the method: as §2

[9] = first compound 1.562 µg/mL, partner 0.15 µg/mL
[10] = first compound 1.562 µg/mL, partner 0.3 µg/mL
[11] = first compound 1.562 µg/mL, partner 0.6 µg/mL
[12] = first compound 3.124 µg/mL, partner 0.15 µg/mL
[13] = first compound 3.124 µg/mL, partner 0.3 µg/mL
[14] = first compound 3.124 µg/mL, partner 0.6 µg/mL
[15] = first compound 0.781 µg/mL, partner 0.15 µg/mL
[16] = first compound 0.781 µg/mL, partner 0.3 µg/mL
[17] = first compound 0.781 µg/mL, partner 0.6 µg/mL
[18] = first compound 0.078 µg/mL, partner 4 µg/mL
[19] = first compound 0.078 µg/mL, partner 8 µg/mL
[20] = first compound 0.078 µg/mL, partner 16 µg/mL
[21] = first compound 0.078 µg/mL, partner 32 µg/mL, one replicate
[22] = first compound 0.078 µg/mL, partner 64 µg/mL, one replicate
[23] = first compound 0.156 µg/mL, partner 4 µg/mL
[24] = first compound 0.156 µg/mL, partner 8 µg/mL
[25] = first compound 0.156 µg/mL, partner 16 µg/mL
[26] = first compound 0.156 µg/mL, partner 32 µg/mL, one replicate
[27] = first compound 0.156 µg/mL, partner 64 µg/mL, one replicate
[28] = first compound 0.312 µg/mL, partner 4 µg/mL
[29] = first compound 0.312 µg/mL, partner 8 µg/mL
[30] = first compound 0.312 µg/mL, partner 16 µg/mL
[31] = first compound 0.312 µg/mL, partner 32 µg/mL, one replicate
[32] = first compound 0.312 µg/mL, partner 64 µg/mL, one replicate
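For Bliss interaction score (quartile over a dose matrix) in this document: first quartile when negative (synergy) and third quartile when positive (antagonism).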

## C[C@@H]1O[C@@H]1P(=O)(O)O [Fosfomycin] + CN(N=O)C(=O)N[C@@H](C=O)[C@@H](O)[C@H](O)[C@H](O)CO [Streptozotocin]
B. subtilis 168 [1]
  Bliss interaction score: -0.108
S. aureus Newman [2]
  Bliss interaction score: -0.0994
S. aureus DSM 20231 [3]
  Bliss interaction score: -0.0585
S. pneumoniae D39V [4]
  Bliss interaction score: -0.0567
B. subtilis 168 [5]; [9]
  fitness: 0.682
B. subtilis 168 [5]; [10]
  fitness: 0.688
B. subtilis 168 [5]; [11]
  fitness: 0.69
B. subtilis 168 [5]; [12]
  fitness: 0.609
B. subtilis 168 [5]; [13]
  fitness: 0.588
B. subtilis 168 [5]; [14]
  fitness: 0.579
B. subtilis 168 [5]; first compound 6.248 µg/mL, partner 0.15 µg/mL
  fitness: 0.432
B. subtilis 168 [5]; first compound 6.248 µg/mL, partner 0.3 µg/mL
  fitness: 0.42
B. subtilis 168 [5]; first compound 6.248 µg/mL, partner 0.6 µg/mL
  fitness: 0.435
S. aureus Newman [6]; [15]
  fitness: 0.526
S. aureus Newman [6]; [16]
  fitness: 0.501
S. aureus Newman [6]; [17]
  fitness: 0.462
S. aureus Newman [6]; [9]
  fitness: 0.491
S. aureus Newman [6]; [10]
  fitness: 0.455
S. aureus Newman [6]; [11]
  fitness: 0.342
S. aureus Newman [6]; [12]
  fitness: 0.129
S. aureus Newman [6]; [13]
  fitness: 0.146
S. aureus Newman [6]; [14]
  fitness: 0.0801
S. aureus DSM 20231 [7]; [15]
  fitness: 0.717
S. aureus DSM 20231 [7]; [16]
  fitness: 0.627
S. aureus DSM 20231 [7]; [17]
  fitness: 0.549
S. aureus DSM 20231 [7]; [9]
  fitness: 0.59
S. aureus DSM 20231 [7]; [10]
  fitness: 0.533
S. aureus DSM 20231 [7]; [11]
  fitness: 0.509
S. aureus DSM 20231 [7]; [12]
  fitness: 0.476
S. aureus DSM 20231 [7]; [13]
  fitness: 0.441
S. aureus DSM 20231 [7]; [14]
  fitness: 0.292
S. pneumoniae D39V [8]; first compound 1.25 µg/mL, partner 1.2 µg/mL
  fitness: 0.898
S. pneumoniae D39V [8]; first compound 1.25 µg/mL, partner 2.4 µg/mL
  fitness: 0.934
S. pneumoniae D39V [8]; first compound 1.25 µg/mL, partner 4.8 µg/mL
  fitness: 0.952
S. pneumoniae D39V [8]; first compound 2.5 µg/mL, partner 1.2 µg/mL
  fitness: 0.899
S. pneumoniae D39V [8]; first compound 2.5 µg/mL, partner 2.4 µg/mL
  fitness: 0.923
S. pneumoniae D39V [8]; first compound 2.5 µg/mL, partner 4.8 µg/mL
  fitness: 0.952
S. pneumoniae D39V [8]; first compound 5 µg/mL, partner 1.2 µg/mL
  fitness: 0.732
S. pneumoniae D39V [8]; first compound 5 µg/mL, partner 2.4 µg/mL
  fitness: 0.703
S. pneumoniae D39V [8]; first compound 5 µg/mL, partner 4.8 µg/mL
  fitness: 0.747

## CO/N=C(\C(=O)N[C@@H]1C(=O)N2C(C(=O)O)=C(COC(C)=O)CS[C@H]12)c1csc(N)n1 [Cefotaxime] + CN[C@@H]1[C@H](O)[C@H](NC)[C@H]2O[C@@]3(O)C(=O)C[C@@H](C)O[C@H]3O[C@@H]2[C@H]1O [Spectinomycin]
B. subtilis 168 [1]
  Bliss interaction score: -0.0623
S. aureus Newman [2]
  Bliss interaction score: -0.0972
S. aureus DSM 20231 [3]
  Bliss interaction score: 0.0658
S. pneumoniae D39V [4]
  Bliss interaction score: 0.108
B. subtilis 168 [5]; first compound 0.00775 µg/mL, partner 2 µg/mL, one replicate
  fitness: 0.794
B. subtilis 168 [5]; first compound 0.00775 µg/mL, partner 4 µg/mL, one replicate
  fitness: 0.796
B. subtilis 168 [5]; first compound 0.00775 µg/mL, partner 8 µg/mL, one replicate
  fitness: 0.816
B. subtilis 168 [5]; first compound 0.0155 µg/mL, partner 2 µg/mL, one replicate
  fitness: 0.671
B. subtilis 168 [5]; first compound 0.0155 µg/mL, partner 4 µg/mL, one replicate
  fitness: 0.748
B. subtilis 168 [5]; first compound 0.0155 µg/mL, partner 8 µg/mL, one replicate
  fitness: 0.571
B. subtilis 168 [5]; first compound 0.031 µg/mL, partner 2 µg/mL, one replicate
  fitness: 0.521
B. subtilis 168 [5]; first compound 0.031 µg/mL, partner 4 µg/mL, one replicate
  fitness: 0.519
B. subtilis 168 [5]; first compound 0.031 µg/mL, partner 8 µg/mL, one replicate
  fitness: 0.258
B. subtilis 168 [5]; first compound 0.5 µg/mL, partner 2 µg/mL
  fitness: 0.234
B. subtilis 168 [5]; first compound 0.5 µg/mL, partner 4 µg/mL
  fitness: 0.139
B. subtilis 168 [5]; first compound 0.5 µg/mL, partner 8 µg/mL
  fitness: 0.0989
B. subtilis 168 [5]; first compound 1 µg/mL, partner 2 µg/mL
  fitness: 0.11
B. subtilis 168 [5]; first compound 1 µg/mL, partner 4 µg/mL
  fitness: 0.0503
B. subtilis 168 [5]; first compound 1 µg/mL, partner 8 µg/mL
  fitness: 0.0323
B. subtilis 168 [5]; first compound 2 µg/mL, partner 2 µg/mL
  fitness: 0.0973
B. subtilis 168 [5]; first compound 2 µg/mL, partner 4 µg/mL
  fitness: 0.0906
B. subtilis 168 [5]; first compound 2 µg/mL, partner 8 µg/mL
  fitness: 0.091
S. aureus Newman [6]; [18]
  fitness: 0.697
S. aureus Newman [6]; [19]
  fitness: 0.716
S. aureus Newman [6]; [20]
  fitness: 0.686
S. aureus Newman [6]; [21]
  fitness: 0.328
S. aureus Newman [6]; [22]
  fitness: 0.0751
S. aureus Newman [6]; [23]
  fitness: 0.582
S. aureus Newman [6]; [24]
  fitness: 0.59
S. aureus Newman [6]; [25]
  fitness: 0.503
S. aureus Newman [6]; [26]
  fitness: 0.0776
S. aureus Newman [6]; [27]
  fitness: 0.0848
S. aureus Newman [6]; [28]
  fitness: 0.272
S. aureus Newman [6]; [29]
  fitness: 0.201
S. aureus Newman [6]; [30]
  fitness: 0.0958
S. aureus Newman [6]; [31]
  fitness: 0.0307
S. aureus Newman [6]; [32]
  fitness: 0.0805
S. aureus Newman [6]; first compound 0.625 µg/mL, partner 4 µg/mL, one replicate
  fitness: 0.0066
S. aureus Newman [6]; first compound 0.625 µg/mL, partner 8 µg/mL, one replicate
  fitness: 0.0296
S. aureus Newman [6]; first compound 0.625 µg/mL, partner 16 µg/mL, one replicate
  fitness: 0.021
S. aureus Newman [6]; first compound 1.25 µg/mL, partner 4 µg/mL, one replicate
  fitness: 0.0276
S. aureus Newman [6]; first compound 1.25 µg/mL, partner 8 µg/mL, one replicate
  fitness: 0.0141
S. aureus Newman [6]; first compound 1.25 µg/mL, partner 16 µg/mL, one replicate
  fitness: 0.0089
S. aureus Newman [6]; first compound 2.5 µg/mL, partner 4 µg/mL, one replicate
  fitness: 0.0608
S. aureus Newman [6]; first compound 2.5 µg/mL, partner 8 µg/mL, one replicate
  fitness: 0.0355
S. aureus Newman [6]; first compound 2.5 µg/mL, partner 16 µg/mL, one replicate
  fitness: 0.0355
S. aureus DSM 20231 [7]; first compound 0.039 µg/mL, partner 4 µg/mL, one replicate
  fitness: 0.72
S. aureus DSM 20231 [7]; first compound 0.039 µg/mL, partner 8 µg/mL, one replicate
  fitness: 0.747
S. aureus DSM 20231 [7]; first compound 0.039 µg/mL, partner 16 µg/mL, one replicate
  fitness: 0.707
S. aureus DSM 20231 [7]; [18]
  fitness: 0.791
S. aureus DSM 20231 [7]; [19]
  fitness: 0.747
S. aureus DSM 20231 [7]; [20]
  fitness: 0.714
S. aureus DSM 20231 [7]; [21]
  fitness: 0.597
S. aureus DSM 20231 [7]; [22]
  fitness: 0.0453
S. aureus DSM 20231 [7]; [23]
  fitness: 0.704
S. aureus DSM 20231 [7]; [24]
  fitness: 0.754
S. aureus DSM 20231 [7]; [25]
  fitness: 0.711
S. aureus DSM 20231 [7]; [26]
  fitness: 0.632
S. aureus DSM 20231 [7]; [27]
  fitness: 0.0727
S. aureus DSM 20231 [7]; [28]
  fitness: 0.68
S. aureus DSM 20231 [7]; [29]
  fitness: 0.694
S. aureus DSM 20231 [7]; [30]
  fitness: 0.596
S. aureus DSM 20231 [7]; [31]
  fitness: 0.583
S. aureus DSM 20231 [7]; [32]
  fitness: 0.0287
S. pneumoniae D39V [8]; first compound 0.0018 µg/mL, partner 4 µg/mL
  fitness: 0.985
S. pneumoniae D39V [8]; first compound 0.0018 µg/mL, partner 8 µg/mL
  fitness: 0.944
S. pneumoniae D39V [8]; first compound 0.0018 µg/mL, partner 16 µg/mL
  fitness: 0.9
S. pneumoniae D39V [8]; first compound 0.0035 µg/mL, partner 4 µg/mL
  fitness: 0.97
S. pneumoniae D39V [8]; first compound 0.0035 µg/mL, partner 8 µg/mL
  fitness: 0.944
S. pneumoniae D39V [8]; first compound 0.0035 µg/mL, partner 16 µg/mL
  fitness: 0.847
S. pneumoniae D39V [8]; first compound 0.007 µg/mL, partner 4 µg/mL
  fitness: 0.834
S. pneumoniae D39V [8]; first compound 0.007 µg/mL, partner 8 µg/mL
  fitness: 0.852
S. pneumoniae D39V [8]; first compound 0.007 µg/mL, partner 16 µg/mL
  fitness: 0.8

Source: the supplement of paper PMC10627819
